For nine compounds, Activity, CC50 and IC50 results are on record in ChEMBL document CHEMBL3871261, “Novel pyrazolo[3,4-d]pyrimidines as dual Src-Abl inhibitors active against mutant form of Abl and the leukemia K-562 cell line” (Eur J Med Chem, 2016).

One experiment is filed under the species Homo sapiens. The experiment is described as follows: Inhibition of recombinant PI3K (unknown origin) assessed as residual activity at 100 uM by [gamma-32P]ATP based assay.
The nature of experiment [1]: Cytotoxicity against human K562 cells assessed as decrease in cell viability by MTT assay. The experiment is classed as functional. Background: Formazan colour is commonly taken as a measure of viable cells.
Experiment [2] deals with Tyrosine-protein kinase ABL1 (Homo sapiens, UniProt P00519). The experiment is described as follows: Inhibition of wild type recombinant human Abl using abtide as substrate by [gamma-32P]ATP based assay.

The CC50 is the concentration at which the toxic effect on the cells reaches its halfway point. Broadly, the IC50 is the point on the concentration scale where inhibition reaches its midpoint.

Tyrosine-protein kinase ABL1, sequence (P00519 whole entry): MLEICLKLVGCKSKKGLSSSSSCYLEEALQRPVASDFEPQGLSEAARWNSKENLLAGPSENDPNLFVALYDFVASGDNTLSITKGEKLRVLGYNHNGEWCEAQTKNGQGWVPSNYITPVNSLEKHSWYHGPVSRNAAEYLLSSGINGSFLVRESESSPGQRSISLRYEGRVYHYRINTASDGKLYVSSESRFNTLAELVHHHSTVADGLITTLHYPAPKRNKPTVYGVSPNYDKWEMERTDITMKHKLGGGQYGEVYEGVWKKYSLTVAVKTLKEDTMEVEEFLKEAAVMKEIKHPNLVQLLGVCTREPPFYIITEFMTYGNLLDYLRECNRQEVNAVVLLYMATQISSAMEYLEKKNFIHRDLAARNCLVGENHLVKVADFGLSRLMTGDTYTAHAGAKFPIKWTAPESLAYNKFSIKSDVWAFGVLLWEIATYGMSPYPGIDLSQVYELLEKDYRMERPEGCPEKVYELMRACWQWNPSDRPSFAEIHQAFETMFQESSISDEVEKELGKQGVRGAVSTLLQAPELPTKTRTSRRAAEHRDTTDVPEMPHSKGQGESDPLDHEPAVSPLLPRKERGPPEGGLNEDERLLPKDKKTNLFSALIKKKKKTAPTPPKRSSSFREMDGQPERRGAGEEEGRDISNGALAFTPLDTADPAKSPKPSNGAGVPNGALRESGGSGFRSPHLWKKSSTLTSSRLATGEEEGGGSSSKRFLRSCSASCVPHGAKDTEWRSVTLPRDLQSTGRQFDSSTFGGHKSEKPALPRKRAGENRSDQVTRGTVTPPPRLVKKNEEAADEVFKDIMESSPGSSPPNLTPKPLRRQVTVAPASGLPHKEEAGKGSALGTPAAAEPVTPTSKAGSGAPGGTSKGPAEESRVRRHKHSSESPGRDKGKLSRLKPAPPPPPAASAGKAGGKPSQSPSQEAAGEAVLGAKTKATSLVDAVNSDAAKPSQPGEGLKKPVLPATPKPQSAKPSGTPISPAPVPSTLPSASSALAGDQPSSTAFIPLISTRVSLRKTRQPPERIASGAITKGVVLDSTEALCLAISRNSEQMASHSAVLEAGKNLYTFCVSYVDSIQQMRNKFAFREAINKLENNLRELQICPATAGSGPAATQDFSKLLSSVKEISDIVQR

Consider `O=c1c2cnn(-c3ccccc3)c2n2c(-c3ccccc3)nnc2n1-c1ccccc1`, for which, in the experiment filed under Homo sapiens, the Activity is 82%. Moreover, the CC50 in experiment [1] stood at 920 nM.

In the case of `NNc1nc2c(cnn2-c2ccccc2)c(=O)n1-c1ccccc1`, in experiment [1], the CC50 is 2370 nM.

On to `COc1ccc(C(=O)NNc2nc3c(cnn3-c3ccccc3)c(=O)n2-c2ccccc2)cc1`, for which the Activity in the experiment filed under Homo sapiens came to 80%. The CC50 in experiment [1] is 50 nM.

On to `O=c1c2cnn(-c3ccccc3)c2n2c(Nc3ccccc3)nnc2n1-c1ccccc1`, for which the CC50 in experiment [1] turned out to be 4920 nM. Besides, in experiment [2], the IC50 was 150000 nM.

In the case of `O=c1c2cnn(-c3ccccc3)c2nc(N/N=C/c2ccc(F)cc2)n1-c1ccccc1`, the CC50 in experiment [1] stood at 4060 nM. Moreover, the IC50 in experiment [2] worked out at 110000 nM.

Take `O=C(NNc1nc2c(cnn2-c2ccccc2)c(=O)n1-c1ccccc1)c1ccccc1`: the Activity in the experiment listed under Homo sapiens turned out to be 100%. For the same compound, the CC50 in experiment [1] worked out at 70 nM.

Consider `Cc1nc(Nc2ncc(C(=O)Nc3c(C)cccc3Cl)s2)cc(N2CCN(CCO)CC2)n1` [DASATINIB], for which the half-maximal cytotoxic concentration (CC50) in experiment [1] came out at 250 nM.

As for `O=C(NNc1nc2c(cnn2-c2ccccc2)c(=O)n1-c1ccccc1)c1ccc(Cl)cc1`, the CC50 in experiment [1] worked out at 860 nM.

`COc1ccc(-c2nnc3n(-c4ccccc4)c(=O)c4cnn(-c5ccccc5)c4n23)cc1`: the Activity in the experiment listed under Homo sapiens worked out at 90%. Further, the CC50 in experiment [1] was 1060 nM.
